In patent publication US20230121926A1, “METHODS FOR TISSUE REGENERATION AND KITS THEREFOR” (THE BOARD OF TRUSTEES OF THE LELAND STANFORD JUNIOR …, priority 2020, published 2023):

Legend:
human dermal fibroblasts = test: scRNA-seq of strained human dermal fibroblasts in 3D collagen scaffolds; type: cell-based
From the text: Using this experimental system, in vivo dermal strain patterns were mimicked, imposing biaxial strain upon the fibroblasts, while also attenuating mechanotransduction in a subset of samples. The collagen scaffolds were enzymatically digested to obtain cellular suspensions of fibroblasts, which were then processed for scRNA-seq, as shown in FIGS. 2A and 2C. All single cell data were initially analyzed in a manner blinded to phenotype of origin. Following log-normalization, pooled data were subjected to semi-supervised Louvain-based clustering and embedded into UMAP-space (Seurat). Eight transcriptionally distinct subpopulations (cluster 0 to cluster 7) were identified among cells from the pooled data superset, as shown in FIG. 2D. When unblinded, considerable permissiveness among clusters were found across both phenotypes and biological replicates, consistent with the known heterogeneity among human dermal fibroblasts (FIG. 2D).
Fibroblast-populated 3D collagen scaffold experiments. Dermal fibroblasts were isolated from both porcine and human skin samples and cultured separately. Porcine skin was obtained from the unwounded (normal skin) areas of a euthanized red duroc pig. Human skin samples were obtained under the approved IRB (#54225) and collected from three surgical procedures; a breast mastectomy, an abdominoplasty, and a thighplasty (n=3 patients). Fibroblasts were isolated by mechanical and enzymatic digestion and cultured under standard conditions until passage 3. The primary fibroblast cultures were then used to create fibroblast-populated collagen hydrogels at final concentration of 200 k cells/mL and 2 mg/mL collagen (PureCol, Advanced Biomatrix, San Diego, Calif.), following protocols as described in Chen, K. et al, “Role of boundary conditions in determining cell alignment in response to stretch”, PNAS 115, 986-991, doi:10.1073/pnas.1715059115 (2018), the entire disclosure of which is hereby incorporated by reference in its entirety. In brief, collagen scaffolds were formulated in a cruciform shape in petri dishes with a PDMS coating (˜4 mm) on the bottom (FIG. 2B). Pins were pushed through the hydrogel cruciform arms to constrain the scaffolds in both directions for a 24h pre-culture period before being subjected to either no strain, 10% equibiaxial strain, or strain+FAKI treatment for an additional 48 hours (FIGS. 2A-2B, FIG. 9A). FAKI treatment was administered by adding 20 mM FAKI in DMSO into the culture media of the scaffolds to achieve a final concentration of 10 micromolar FAKI for 48 hours. Strain was imposed by removing the anchoring pins, manually extending the hydrogel cruciform arms, and pushing the pins back to hold the arms in the new, extended position. Nine Titanium (IV) oxide paint dots (Sigma-Aldrich) were applied on the surface of the central region of the gel (boxes in FIG. 9A) to track and quantify the imposed strains. A digital camera was used to image the markers before and after strain. Photographs of marker position were used to compute a single homogenous deformation gradient tensor F that provided the least-squares best fit mapping of the 9 marker positions from the undeformed to deformed positions by solving the overdetermined matrix equation: […]
Single cell barcoding, library preparation, and single cell RNA sequencing. After two days of increased (induction of strain) or inhibited (induction of strain+FAKI) mechanotransduction, collagen scaffolds were micro-dissected and enzymatically digested to obtain cellular suspensions of human fibroblasts for droplet-based microfluidic single cell RNA sequencing (scRNA-seq) using the 10× Chromium Single Cell platform (FIG. 2C) (Single Cell 3′ v3, 10× Genomics, USA). A droplet of the cell suspensions, reverse transcription master mix, and partitioning oil was loaded onto a single cell chip and processed on the Chromium Controller. […]

dermal fibroblasts = test: Fibroblast-populated 3D collagen scaffold under strain (alignment, contraction); type: cell-based, human
Method: Mechanotransduction shifts human fibroblast heterogeneity. […] To confirm the translational potential of the results in the porcine model on the role of mechanotransduction in the fibrotic response, dermal fibroblasts isolated from human surgical patients were then evaluated. Cells were seeded within 3D collagen scaffolds at densities of 2.0 mg/mL collagen and 200,000 cells/mL (FIG. 2A). To artificially increase tissue forces, the mechanical strain applied to fibroblasts was precisely manipulated as described in Chen, K. et al, “Role of boundary conditions in determining cell alignment in response to stretch”, PNAS 115, 986-991, doi:10.1073/pnas.1715059115 (2018), the entire disclosure of which is hereby incorporated by reference in its entirety, and shown in FIG. 2B and FIG. 9A. […] The efficacy of this in vitro system to mimic the fibrogenic phenotype observed in healing wounds and resultant scar was confirmed. […] Fibroblast reorganization of ECM drives collagen remodeling and development of long, aligned collagen fibers characteristic of fibrosis. […]
Fibroblast-populated 3D collagen scaffold experiments. […] Nine Titanium (IV) oxide paint dots (Sigma-Aldrich) were applied on the surface of the central region of the gel (boxes in FIG. 9A) to track and quantify the imposed strains. […]

[1] = 10% strain, 10 micromolar FAKI, 48 hours

`CN(c1ncccc1CNc1nc(Nc2ccc3c(c2)CC(=O)N3)ncc1C(F)(F)F)S(C)(=O)=O` [VS-6062] was tested, and the “expression of AIMP3” value (human dermal fibroblasts; [1]) was “increased”, the “expression of MMP1” value (human dermal fibroblasts; [1]) was “increased” and the “expression of Mmp10” value (human dermal fibroblasts; [1]) was “significantly upregulated”. For the same compound, the “transcription of COL1A1” value (human dermal fibroblasts; [1]) was “strongly reduced”, the “transcription of COL3A1” value (human dermal fibroblasts; [1]) was “strongly reduced” and the “strain-induced pro-fibrotic, myofibroblast and mechanotransduction gene expression (ACTA2, PDGFRA, RUNX1, ZEB2, MAPK1, PI3KR1, EGFR, RAC1, YAP1)” value (human dermal fibroblasts; strained fibroblasts with FAKI) was “abrogated nearly all of these fibrotic signaling changes”. For the same compound, the “fibroblast alignment under uniaxial strain” value (dermal fibroblasts; 10% uniaxial strain, 10 micromolar FAKI) was “aligned multi-directionally” and the “contraction assay: fibroblast remodeling of the ECM environment” value (dermal fibroblasts; collagen scaffolds) was “hinders the fibroblasts from remodeling (R) the ECM environment”.
